The source of these data is patent US4876255A, “Substituted 1,4-dihydropyridines for control of circulation and thromboses” (Bayer Aktiengesellschaft, priority 1987, dated 1989).

The subject of assay [1] is isolated perfused guineapig hearts. The assay can be described thus: Coronary and circulatory activity on isolated perfused guineapig hearts. As to conditions: Cavia porcellus, 10^-6 g/ml, difference to starting pressure set as 100%. An excerpt:
The coronary and circulatory activities were discovered using isolated perfused guineapig hearts.
For this, the hearts of 250 to 350 g guineapigs are used. The animals are killed by a blow to the head, the thorax is opened, and a metal cannula is tied into the exposed aorta. The heart is removed from the thorax with the lungs and is connected to the perfusion apparatus through an aortic cannula, with continuous perfusion. The lungs are removed at the lung roots. A Krebs Henseleit solution (1) (118.5 mmol/l of NaCl, 4.75 mmol/l of KCl, 1.19 mmol/l of KH2 PO4, 1.19 mmol/l of MgSO4, 25 mmol/l of NaHCO3, 0.013 mmol/l of Na2 EDTA), which contains 1.2 mmol/l of CaCl2, is used as the perfusion medium. 10 mmol/l of glucose are added as an energy-liberating substrate. Before the perfusion the solution is filtered until free of particles. The solution is gassed with Carbogen (95% O2, 5% CO2) in order to maintain a pH value of 7.4. The hearts are perfused at a constant flow rate (10 ml/min) at 32° C. using a peristaltic pump.
In order to measure the cardiac function, a latex balloon filled with liquid and connected through a column of liquid to a pressure gauge is introduced into the left ventricle through the left auricle, and the isovolumetric contractions are recorded on a high-speed recorder (Opie, L., J. Physiol. 180 (1965) 529-541). The perfusion pressure is recorded using a pressure gauge which is connected to the perfusion system upstream of the heart. Under these conditions a decrease in the perfusion pressure indicates coronary dilation, and a rise or fall in the amplitude of contraction of the left ventricle indicates an increase or decrease in cardiac contractility. The compounds according to the invention are infused into the perfusion medium at suitable dilutions just upstream of the isolated heart.
The following values show, as an example, the effect of the compounds according to the invention on isolated perfused guineapig hearts, expressed as the percentage difference to the starting pressure, set as equivalent to 100%.

In assay [2] the test system is TXA2 synthesis. The assay can be described thus: Inhibition of TXA2 synthesis (3H-arachidonic acid metabolism in washed human thrombocytes, TLC). In kind it is cell-based. Conditions: 10 min, 2 min pre-incubation, 10 min with 3H-arachidonic acid, 37° C., read-out: Minimal effective concentration for inhibition (MEC) of TXA2 synthesis. The source says:
Arachidonic acid metabolism in human thrombocytes was investigated using tritium-labelled arachidonic acid. Thrombocytes metabolize arachidonic acid to TXA2 and HHT via the cyclooxygenase pathway and to 12-HETE via the lipoxygenase pathway, which can be separated by thin layer chromatography [cf Bailey, J.M. et al., Prostaglandins 13, 479-492, (1977)], Inhibitors of the individual enzymatic reactions alter the chromatographic distribution pattern in a characteristic manner.
Washed human thrombocytes from healthy donors who had taken no drug for 14 days were incubated for 2 minutes at 37° C. with the test substance and then incubated for a further 10 minutes at 37° C. with ^3 H-arachidonic acid. The suspension was acidified and extracted with ethyl acetate. The ethyl acetate was evaporated off under a nitrogen atmosphere and the residue was taken up in methanol/trichloromethane (1:1) and applied to TLC plastic sheets. Separation was performed using a trichloromethane/methanol/glacial acetic acid/water (80:8:1:0.8) mobile solvent mixture. The distribution of radioactivity was measured by means of a radioscanner (Table 1).

In assay [3] the test system is PGI2 synthesis. The assay can be described thus: Prostacyclin stimulation in whole blood (collagen-induced, 6-keto-PGF1α radioimmunologically). It counts as cell-based. As to conditions: read-out: Stimulation of PGI2 synthesis (MEC). As for the experimental part: The 1,4-dihydrophyridines to be used according to the invention additionally stimulate the synthesis of PGI2. PGI2 has vasodilating and thrombocyte aggregation inhibiting activity, in contrast with the vasoconstrictor and thrombocyte aggregation […] action of thromboxan.
In whole blood, collagen induces the formation of PGI2. The endoperoxides formed in the thrombocytes are probably converted into PGI2 by leucocytes. The stable end product of PGI2 conversion, 6-keto-PGF1 α, is determined radioimmunologically (Table 2).

[4] abbreviates: decrease indicates coronary dilation, read-out: % alteration in perfusion pressure.
The mark [5] stands for this setting: read-out: % alteration in contractility.

Structures are written as SMILES. Read-outs that look alike come from different tables or passages of the source. Where only a bound is given, the exact number is not on record here.

On to `CCOC(=O)C1=C(C)NC(C)=C(C(=O)OCc2ccc(C3=NNC(=O)CC3)cc2)C1c1cccc([N+](=O)[O-])c1` (stereo not shown) [Example 7, Ethyl 4-(6-oxo-1,4,5,6-tetrahydropyridazin-3-yl)benzyl 1,4-dihydro-2,6-dimethyl-4-(3-nitrophenyl)-pyridine-3,5-dicarboxylate], for which, in assay [1] (setting [4]), the percent change at 1 µg/mL was found to be 0%. For the same compound, the inhibition at 1 µg/mL in assay [1] (setting [5]) is 60%. Take `CC1=C(C(=O)OCCCc2cccnc2)C(CCc2cccnc2)C(C(=O)OCc2ccc(C3=NNC(=O)CC3)cc2)=C(C)N1` (stereo not shown) [Example 11]: the minimal effective concentration in assay [2] amounted to 0.1 µg/mL. Further, the inhibition at 1 µg/mL in assay [1] (setting [4]) was determined as 36%; in assay [1] (setting [5]), 23%. On to `COC(=O)C1=C(C)NC(C)=C(C(=O)OCc2ccc(C3=NNC(=O)CC3)cc2)C1c1ccccc1Cl` (stereo not shown) [Example 13], for which, in assay [1] (setting [4]), the percent change at 1 µg/mL was found to be 0%. For the same compound, in assay [1] (setting [5]), the inhibition at 1 µg/mL came out at 78%.

Regarding `COC(=O)C1=C(C)NC(C)=C(C(=O)OCc2ccc(C3=NNC(=O)CC3)cc2)C1CCc1cccnc1` (stereo not shown) [Example 16], the minimal effective concentration in assay [2] was 0.1 µg/mL. On the same count and under the same terms, next, `CC(=O)C1=C(C)NC(C)=C(C(=O)OCc2ccc(C3=NNC(=O)CC3)cc2)C1CCc1cccnc1` (stereo not shown) [Example 18]: 0.1 µg/mL. For the compound `CC1=C(C#N)C(CCc2cccnc2)C(C(=O)OCc2ccc(C3=NNC(=O)CC3)cc2)=C(C)N1` (stereo not shown) [Example 19], the minimal effective concentration in assay [2] came out at 0.1 µg/mL. On to `COC(=O)C1=C(C)NC(C)=C(C(=O)OCCc2ccc(C3=NNC(=O)CC3)cc2)C1CCc1cccnc1` (stereo not shown) [Example 21], for which, in assay [3], the minimal effective concentration was under 3 µg/mL. As to `CC1=C(C(=O)OCCCc2cccnc2)C(CCc2cccnc2)C(C(=O)OCCc2ccc(C3=NNC(=O)CC3)cc2)=C(C)N1` (stereo not shown) [Example 22], the figures for the minimal effective concentration in assay [2] and in assay [3] were under 0.1 µg/mL and under 1 µg/mL, respectively.
